# US20100267561A1, “HERBICIDAL PYRIDAZINONE DERIVATIVES” (priority 2007, published 2010)
# What was measured:
# Type in all cases: in vivo
# [1] = test system: windgrass (Apera spica-venti); experiment: Test C pre-/postemergence plant response
# Summary of the method: (§1)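 Pre/post spray; solvent blend non-phytotoxic, with surfactant; post stage 1–4 leaves (2–18 cm); controlled environment 15–25 d; visual score 0–100 relative to controls, 100 = complete control.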
# [2] = test system: winter barley (Hordeum vulgare); experiment: Test C pre-/postemergence plant response
# Summary of the method: as §1
# canola (Brassica rapa) = experiment: Test C pre-/postemergence plant response
# Summary of the method: as §1
# [3] = test system: spring wheat (Triticum aestivum); experiment: Test C pre-/postemergence plant response
# Summary of the method: as §1
# [4] = test system: common chickweed (Stellaria media); experiment: Test E pre-/postemergence plant response; conditions: Postemergence, scale 0 to 100
# Summary of the method: (§2)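 Greenhouse test. Compound, formulated in a non-phytotoxic solvent with surfactant, is applied preemergence to planted seeds and postemergence to 1- to 4-leaf plants of 2 to 18 cm. Plants are compared with controls after 14 to 21 days and scored 0 (no effect) to 100 (complete control).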
# [5] = test system: Italian ryegrass (Lolium multiflorum); experiment: Test E pre-/postemergence plant response; conditions: scale 0 to 100
# Summary of the method: as §2
# [6] = test system: common groundsel (Senecio vulgaris); experiment: Test E pre-/postemergence plant response; conditions: scale 0 to 100
# Summary of the method: as §2
# [7] = test system: naked crabgrass (Digitaria nuda); experiment: Test E pre-/postemergence plant response; conditions: scale 0 to 100
# Summary of the method: as §2
# [8] = test system: barnyardgrass (Echinochloa crus-galli); experiment: Test E pre-/postemergence plant response
# Summary of the method: as §2
# [9] = test system: southern (S.) sandbur (Cenchrus echinatus); experiment: Test E pre-/postemergence plant response; conditions: scale 0 to 100
# Summary of the method: as §2
# [10] = test system: johnsongrass (Sorghum halepense); experiment: Test E pre-/postemergence plant response; conditions: scale 0 to 100
# Summary of the method: as §2
# [11] = test system: annual bluegrass (Poa annua); experiment: Test E pre-/postemergence plant response; conditions: scale 0 to 100
# Summary of the method: as §2
# [12] = test system: pitted morningglory (Ipomoea lacunosa); experiment: Test E pre-/postemergence plant response; conditions: scale 0 to 100
# Summary of the method: as §2
# [13] = Postemergence, 8 g ai/ha, scale 0 to 100, 0 no effect, 100 complete control
# [14] = Postemergence, 16 g ai/ha, scale 0 to 100, 0 no effect, 100 complete control
# [15] = Postemergence, 31 g ai/ha, scale 0 to 100, 0 no effect, 100 complete control
# [16] = Postemergence, 62 g ai/ha, scale 0 to 100, 0 no effect, 100 complete control
# [17] = Preemergence, 8 g ai/ha, scale 0 to 100 (0 no effect, 100 complete control)
# [18] = Preemergence, 16 g ai/ha, scale 0 to 100 (0 no effect, 100 complete control)
# [19] = Preemergence, 31 g ai/ha, scale 0 to 100 (0 no effect, 100 complete control)
# [20] = Preemergence, 62 g ai/ha, scale 0 to 100, 0 no effect, 100 complete control
smiles,measurement,setting,value
"CCc1cc(-c2ccc(C(F)(F)F)cc2)nn1-c1c(O)cnn(C)c1=O [Compound 11, 4-[5-ethyl-3-[4-(trifluoromethyl)phenyl]-1H-pyrazol-1-yl]-5-hydroxy-2-methyl-3(2H)-pyridazinone]","Plant response rating, Windgrass",[1]; [13],95
same,"Plant response rating, Windgrass",[1]; [14],95
same,"Plant response rating, Windgrass",[1]; [15],95
same,"Plant response rating, Windgrass",[1]; [16],95
same,"Plant response rating, Windgrass",[1]; [17],100
same,"Plant response rating, Windgrass",[1]; [18],100
same,"Plant response rating, Windgrass",[1]; [19],100
same,"Plant response rating, Windgrass",[1]; [20],100
same,"Plant response rating, Barley, Winter",[2]; [13],60
same,"Plant response rating, Barley, Winter",[2]; [14],70
same,"Plant response rating, Barley, Winter",[2]; [15],95
same,"Plant response rating, Barley, Winter",[2]; [16],100
same,"Plant response rating, Barley, Winter",[2]; [17],20
same,"Plant response rating, Barley, Winter",[2]; [18],40
same,"Plant response rating, Barley, Winter",[2]; [19],75
same,"Plant response rating, Barley, Winter",[2]; [20],95
same,"Plant response rating, Canola",canola (Brassica rapa); [13],0
same,"Plant response rating, Canola",canola (Brassica rapa); [14],0
same,"Plant response rating, Canola",canola (Brassica rapa); [15],0
same,"Plant response rating, Canola",canola (Brassica rapa); [16],0
same,"Plant response rating, Canola",canola (Brassica rapa); [17],0
same,"Plant response rating, Canola",canola (Brassica rapa); [18],0
same,"Plant response rating, Canola",canola (Brassica rapa); [19],0
same,"Plant response rating, Canola",canola (Brassica rapa); [20],0
same,"Plant response rating, Wheat, Spring",[3]; [13],65
same,"Plant response rating, Wheat, Spring",[3]; [14],90
same,"Plant response rating, Wheat, Spring",[3]; [15],98
same,"Plant response rating, Wheat, Spring",[3]; [16],98
same,"Plant response rating, Wheat, Spring",[3]; [17],50
same,"Plant response rating, Wheat, Spring",[3]; [18],60
same,"Plant response rating, Wheat, Spring",[3]; [19],75
same,"Plant response rating, Wheat, Spring",[3]; [20],100
same,"Plant response rating, Chickweed",[4]; 4 g ai/ha,0
same,"Plant response rating, Chickweed",[4]; 8 g ai/ha,0
same,"Plant response rating, Chickweed",[4]; 16 g ai/ha,0
same,"Plant response rating, Chickweed",[4]; 31 g ai/ha,0
same,"Plant response rating, Ryegrass, Italian","[5]; 4 g ai/ha, Postemergence",75
same,"Plant response rating, Ryegrass, Italian","[5]; 16 g ai/ha, Preemergence",80
same,"Plant response rating, Ryegrass, Italian","[5]; 31 g ai/ha, Preemergence",100
same,"Plant response rating, Ryegrass, Italian","[5]; Postemergence, 8 g ai/ha",90
same,"Plant response rating, Ryegrass, Italian","[5]; Postemergence, 16 g ai/ha",95
same,"Plant response rating, Ryegrass, Italian","[5]; Postemergence, 31 g ai/ha",95
same,"Plant response rating, Ryegrass, Italian","[5]; Preemergence, 4 g ai/ha",20
same,"Plant response rating, Groundsel","[6]; 4 g ai/ha, Postemergence",0
same,"Plant response rating, Groundsel","[6]; 16 g ai/ha, Preemergence",0
same,"Plant response rating, Groundsel","[6]; 31 g ai/ha, Preemergence",0
same,"Plant response rating, Groundsel","[6]; Postemergence, 8 g ai/ha",0
same,"Plant response rating, Groundsel","[6]; Postemergence, 16 g ai/ha",0
same,"Plant response rating, Groundsel","[6]; Postemergence, 31 g ai/ha",0
same,"Plant response rating, Groundsel","[6]; Preemergence, 4 g ai/ha",0
same,"Plant response rating, Crabgrass, Naked","[7]; 4 g ai/ha, Postemergence",25
same,"Plant response rating, Crabgrass, Naked","[7]; 8 g ai/ha, Preemergence",40
same,"Plant response rating, Crabgrass, Naked","[7]; 16 g ai/ha, Preemergence",95
same,"Plant response rating, Crabgrass, Naked","[7]; 31 g ai/ha, Preemergence",100
same,"Plant response rating, Crabgrass, Naked","[7]; Postemergence, 8 g ai/ha",90
same,"Plant response rating, Crabgrass, Naked","[7]; Postemergence, 16 g ai/ha",95
same,"Plant response rating, Crabgrass, Naked","[7]; Postemergence, 31 g ai/ha",98
same,"Plant response rating, Barnyardgrass","[8]; 4 g ai/ha, Postemergence, scale 0 to 100",90
same,"Plant response rating, Barnyardgrass","[8]; 8 g ai/ha, Preemergence, scale 0 to 100",75
same,"Plant response rating, Barnyardgrass","[8]; 16 g ai/ha, Preemergence, scale 0 to 100",90
same,"Plant response rating, Barnyardgrass","[8]; 31 g ai/ha, Preemergence, scale 0 to 100",98
same,"Plant response rating, Barnyardgrass","[8]; Postemergence, 8 g ai/ha, scale 0 to 100",100
same,"Plant response rating, Barnyardgrass","[8]; Postemergence, 16 g ai/ha, scale 0 to 100",100
same,"Plant response rating, Barnyardgrass","[8]; Postemergence, 31 g ai/ha, scale 0 to 100",100
same,"Plant response rating, Barnyardgrass","[8]; Preemergence, 4 g ai/ha, scale 0 to 100, 0 no effect, 100 complete control",0
same,"Plant response rating, Sandbur, S.","[9]; 4 g ai/ha, Postemergence",90
same,"Plant response rating, Sandbur, S.","[9]; 16 g ai/ha, Preemergence",90
same,"Plant response rating, Sandbur, S.","[9]; 31 g ai/ha, Preemergence",95
same,"Plant response rating, Sandbur, S.","[9]; Postemergence, 8 g ai/ha",95
same,"Plant response rating, Sandbur, S.","[9]; Postemergence, 16 g ai/ha",100
same,"Plant response rating, Sandbur, S.","[9]; Postemergence, 31 g ai/ha",100
same,"Plant response rating, Sandbur, S.","[9]; Preemergence, 4 g ai/ha",0
same,"Plant response rating, Johnsongrass","[10]; 4 g ai/ha, Postemergence",95
same,"Plant response rating, Johnsongrass","[10]; 16 g ai/ha, Preemergence",90
same,"Plant response rating, Johnsongrass","[10]; 31 g ai/ha, Preemergence",95
same,"Plant response rating, Johnsongrass","[10]; Postemergence, 8 g ai/ha",100
same,"Plant response rating, Johnsongrass","[10]; Postemergence, 16 g ai/ha",100
same,"Plant response rating, Johnsongrass","[10]; Postemergence, 31 g ai/ha",100
same,"Plant response rating, Johnsongrass","[10]; Preemergence, 4 g ai/ha",75
same,"Plant response rating, Bluegrass","[11]; 4 g ai/ha, Postemergence",0
same,"Plant response rating, Bluegrass","[11]; 8 g ai/ha, Preemergence",0
same,"Plant response rating, Bluegrass","[11]; 16 g ai/ha, Preemergence",0
same,"Plant response rating, Bluegrass","[11]; 31 g ai/ha, Preemergence",0
same,"Plant response rating, Bluegrass","[11]; Postemergence, 8 g ai/ha",0
same,"Plant response rating, Bluegrass","[11]; Postemergence, 16 g ai/ha",0
same,"Plant response rating, Bluegrass","[11]; Postemergence, 31 g ai/ha",0
same,"Plant response rating, Bluegrass","[11]; Preemergence, 4 g ai/ha",0
same,"Plant response rating, Morningglory","[12]; 4 g ai/ha, Postemergence",0
same,"Plant response rating, Morningglory","[12]; 16 g ai/ha, Preemergence",0
same,"Plant response rating, Morningglory","[12]; 31 g ai/ha, Preemergence",0
same,"Plant response rating, Morningglory","[12]; Postemergence, 8 g ai/ha",0
same,"Plant response rating, Morningglory","[12]; Postemergence, 16 g ai/ha",0
same,"Plant response rating, Morningglory","[12]; Postemergence, 31 g ai/ha",0
same,"Plant response rating, Morningglory","[12]; Preemergence, 4 g ai/ha",0
